Measurements: paper PMC12606464, “Investigating NFE2L1 activators for targeted protein aggregate clearance: a follow-up study” (RSC Medicinal Chemistry, 2025)
Like-named read-outs stand apart in the source and are kept apart here.

Experiments:
[1] = test system: SNCA-EGFP; assay: SNCA-EGFP degradation in SH-SY5Y cells; format: cell-based, human
Method: This reporter is prone to aggregation because of its slow protein turnover. To assess compound efficacy, we measured the fluorescence signal of GFP-tagged synuclein within aggregates.
The GFP fluorescence signal was then normalized to that of the DMSO control and the cell number. The experiment was performed in at least five biological replicates. Statistical analysis was performed using paired t-tests with Holm–Šídák correction for multiple comparisons (α = […]
SH-SY5Y cells stably expressing SNCA-EGFP were seeded on a plate and allowed to […]
tadalafil (5 µM), or RUN compounds at a concentration of 1 µM or treated with an equivalent volume of DMSO dissolved in buffer as a vehicle control. The treatment was performed for 16 hours and then fluorescence was measured. The GFP signal intensity was normalized to both the DMSO control and the cell count.

[2] = test system: chymotrypsin-like activity of the 26S proteasome; assay: Proteasome activity assay in HEK293 cell lysates; format: cell-based, human; settings: 7.5 μM, 16 h; for Proteasome chymotrypsin-like activity, geometric mean of ratios: treatment/control, ratio paired t test, HEK293; for Proteasome chymotrypsin-like activity, geometric mean (treatment): HEK293 lysates, 37 °C, DMSO control = 1
Method: Building on previous findings, we investigated how selected RUN compounds influence proteasomal function itself. Specifically, we examined the chymotrypsin-like activity of the 26S proteasome following a 16 hour treatment with 7.5 μM RUN compounds in the HEK293 cell line. […] In addition, two other cell lines, MCF7 and SH-SY5Y, were measured (see the SI, Fig. S6).
Fig. 3 (A) HEK293 cells were treated with RUN compounds at a concentration of 7.5 μM for 16 hours. DMSO was used as a vehicle control. Proteasome chymotrypsin-like activity was measured in cell lysates at 37 °C. Data came from three biological replicates (n = 3). Statistical analysis was done using ratio paired t-tests corrected for multiple comparisons with Holm–Šídák's method (α = 0.05). *p < 0.05. Detailed results of the analysis are shown in SI Table S7. (B) RUN-89 protects against polyQ-mediated toxicity in an NFE2L1-dependent manner. HCT116 parental cells (WT) and two independent DDI2 knockout clones (KO 04 and KO 11), in which NFE2L1 activation is impaired, were transiently transfected with plasmids encoding non-aggregating EGFP-HttQ23 or aggregation-prone EGFP-HttQ74. Cells were treated with 1 or 3 μM RUN-89 for 48 hours, and viability was measured using the alamarBlue assay. […] Data are shown as the Geomean ± GeoSD from four independent biological replicates (n = 4). Statistical analysis was performed on log2-transformed values using two-way repeated-measures ANOVA followed by Šídak's multiple comparison test. (C right) Parental SH-SY5Y cells (without α-synuclein expression) were treated in the same manner. (C left) The protective effect of RUN compounds was assessed by rotenone-induced α-synuclein proteotoxicity in SH-SY5Y cells, which mimics the PD-like phenotype. Cells were pre-treated with increasing concentrations of RUN compounds (0.312, 0.625, 1.25, and 2.5 μM) for 4 hours and then rotenone (1.125 μM) treatment was done for 24 hours. […]
2.7 Proteasome activity assay
The corresponding cell lines (HEK293, MCF7, or SH-SY5Y) were seeded into 6-well plates and allowed to adhere overnight under standard culture conditions. On the following day, HEK293 cells were treated with 7.5 µM RUN compounds, whereas MCF7 and SH-SY5Y cells were treated with 5 µM RUN compounds, for 16 hours each. After treatment, cells were harvested, resuspended in lysis buffer (50 mM HEPES, pH 7.5; 5 mM EDTA; 150 mM NaCl; 2 mM ATP; 1% Triton), and centrifuged at 15,000 rpm for 15 minutes at 4 °C. The resulting lysates (25 µg total protein) were incubated with 200 µM of the fluorogenic substrate Suc-Leu-Leu-Val-Tyr-AMC (Bachem, I1395) in assay buffer (50 mM Tris, pH 8.0; 10 mM MgCl₂; 1 mM ATP; 1 mM DTT) at 37 °C. Free AMC release was detected by measuring fluorescence at 360/460 nm. […]
HEK293 cells were seeded in 6-well plates and incubated for 24 hours before being transfected with a plasmid containing the CMV-XBP-Gluc reporter using Lipofectamine 2000.(4) After 6 hours, the transfected cells were subsequently transferred to 384-well plates, stabilized overnight, and treated with the proteasome inhibitor and ER stress inducer MG132 and/or various concentrations of RUN compounds (1, 5, and 10 µM) or vehicle (DMSO) for 16 hours. Luciferase activity was normalized to cell viability, which was assessed using the alamarBlue assay. The results are expressed as the fold change compared with the DMSO control, with the experiment conducted in biological triplicate. […]

[3] = test system: reactive oxygen species; assay: DCFH-DA oxidative stress detection; format: cell-based; settings: DCFH-DA assay, Figure S8
Method: 2.10 Oxidative stress detection
Cells were cultured in 96-well plates and washed with prewarmed HBSS buffer. A solution of 2',7'-dichlorofluorescein-diacetate (DCFH-DA) (100 μM) was added to the cells, followed by 30 minutes of incubation. […]
dissolved in HBSS buffer for an additional 2 hours. Control cells received vehicle (DMSO), or […]

[4] = SH-SY5Y, SNCA-EGFP degron, Figure S7

Compound	Geometric mean of ratios (paired t tests, Treatment vs Control = 100) [1]	Geometric mean, Treatment (Control = 100) [1, 4]	Proteasome chymotrypsin-like activity, geometric mean of ratios [2]	Geometric mean, Treatment (Control = 1) ([3]; 5 μM)	Geometric mean, Treatment (Control = 1) ([3]; 25 μM)	Geometric mean of ratios (paired t tests, Treatment vs Control = 100) [1, 4]	Proteasome chymotrypsin-like activity, geometric mean (treatment) [2]
COc1ccc(/C=C2\CC(NC(=O)C3CCCC3)C/C(=C\c3ccc(OC)c(OC)c3)C2=O)cc1OC (centres unmarked) [RUN-89]	-11.61	88.39	1.36	1.09	1.13		
COc1ccc(/C=C2\CC(NC(=O)c3ccccn3)C/C(=C\c3ccc(OC)c(OC)c3)C2=O)cc1OC (centres unmarked) [RUN-94]		92.33	1.21	0.97	1.00	-7.67	1.21
COc1ccc(/C=C2\CC(N)C/C(=C\c3ccc(OC)c(OC)c3)C2=O)cc1OC (centres unmarked) [RUN-81]		88.47	1.21	0.96	0.99	-11.53	1.21
